This note sets out measurements from patent publication US20230103791A1 (GLAXOSMITHKLINE INTELLECTUAL PROPERTY DEVELOPMENT LIMITED, priority 2019, published 2023).

For the experiment, the target named is T1, human Nav1.8 (Homo sapiens, UniProt Q9Y5Y9).
T1 construct: expressed in transfected cells; host or cells: HEK293 (HEK293-Nav1.8)
T1 sequence (Q9Y5Y9 whole entry): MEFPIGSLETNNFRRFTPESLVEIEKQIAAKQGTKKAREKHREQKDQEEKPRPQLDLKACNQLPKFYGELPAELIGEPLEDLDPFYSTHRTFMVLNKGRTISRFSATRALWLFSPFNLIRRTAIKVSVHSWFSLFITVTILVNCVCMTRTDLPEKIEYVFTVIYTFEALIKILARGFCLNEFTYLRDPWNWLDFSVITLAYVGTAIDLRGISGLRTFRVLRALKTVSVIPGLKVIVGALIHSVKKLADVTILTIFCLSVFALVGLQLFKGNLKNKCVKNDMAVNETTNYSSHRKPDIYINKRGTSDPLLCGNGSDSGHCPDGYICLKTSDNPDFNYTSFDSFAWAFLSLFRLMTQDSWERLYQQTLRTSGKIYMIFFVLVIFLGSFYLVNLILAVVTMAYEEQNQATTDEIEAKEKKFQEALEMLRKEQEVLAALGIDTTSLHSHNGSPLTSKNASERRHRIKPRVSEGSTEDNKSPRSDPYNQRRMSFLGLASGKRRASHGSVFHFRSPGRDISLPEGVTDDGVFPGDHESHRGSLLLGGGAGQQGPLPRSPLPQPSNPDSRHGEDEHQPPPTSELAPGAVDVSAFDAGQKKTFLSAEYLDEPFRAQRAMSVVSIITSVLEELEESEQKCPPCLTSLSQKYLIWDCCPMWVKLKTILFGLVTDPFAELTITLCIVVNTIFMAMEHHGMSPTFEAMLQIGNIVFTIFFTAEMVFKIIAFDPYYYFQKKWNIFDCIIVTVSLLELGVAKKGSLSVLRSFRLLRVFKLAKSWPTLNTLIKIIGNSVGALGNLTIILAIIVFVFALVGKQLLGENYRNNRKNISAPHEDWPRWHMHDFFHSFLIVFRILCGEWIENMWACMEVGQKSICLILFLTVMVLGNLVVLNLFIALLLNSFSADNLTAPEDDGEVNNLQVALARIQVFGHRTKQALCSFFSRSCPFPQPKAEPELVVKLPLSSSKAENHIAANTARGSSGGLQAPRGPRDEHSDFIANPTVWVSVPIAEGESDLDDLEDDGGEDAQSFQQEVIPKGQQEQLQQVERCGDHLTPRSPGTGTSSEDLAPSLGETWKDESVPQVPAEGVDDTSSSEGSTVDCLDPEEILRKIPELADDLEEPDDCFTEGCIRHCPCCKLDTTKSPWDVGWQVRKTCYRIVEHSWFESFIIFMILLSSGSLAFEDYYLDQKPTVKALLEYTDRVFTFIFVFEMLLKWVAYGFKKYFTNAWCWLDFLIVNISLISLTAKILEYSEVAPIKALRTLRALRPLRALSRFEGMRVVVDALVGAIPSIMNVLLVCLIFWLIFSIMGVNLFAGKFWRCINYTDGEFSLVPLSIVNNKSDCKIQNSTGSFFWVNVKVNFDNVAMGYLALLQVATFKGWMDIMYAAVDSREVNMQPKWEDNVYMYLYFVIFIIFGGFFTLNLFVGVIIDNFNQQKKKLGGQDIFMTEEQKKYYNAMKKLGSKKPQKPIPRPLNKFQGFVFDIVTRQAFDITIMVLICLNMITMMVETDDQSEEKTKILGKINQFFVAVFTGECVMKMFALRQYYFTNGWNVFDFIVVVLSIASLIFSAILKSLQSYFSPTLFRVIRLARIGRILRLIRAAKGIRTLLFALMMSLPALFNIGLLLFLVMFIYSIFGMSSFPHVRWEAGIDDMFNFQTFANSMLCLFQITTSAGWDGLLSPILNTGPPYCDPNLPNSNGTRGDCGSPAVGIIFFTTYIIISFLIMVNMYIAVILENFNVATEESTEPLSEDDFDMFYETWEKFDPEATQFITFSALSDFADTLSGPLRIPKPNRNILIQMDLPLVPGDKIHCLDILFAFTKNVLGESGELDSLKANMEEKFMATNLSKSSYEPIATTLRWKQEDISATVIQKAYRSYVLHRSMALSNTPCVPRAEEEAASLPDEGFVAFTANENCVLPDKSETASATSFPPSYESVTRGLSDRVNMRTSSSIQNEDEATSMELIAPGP
T1 sequence (Q07699 19-218 partner): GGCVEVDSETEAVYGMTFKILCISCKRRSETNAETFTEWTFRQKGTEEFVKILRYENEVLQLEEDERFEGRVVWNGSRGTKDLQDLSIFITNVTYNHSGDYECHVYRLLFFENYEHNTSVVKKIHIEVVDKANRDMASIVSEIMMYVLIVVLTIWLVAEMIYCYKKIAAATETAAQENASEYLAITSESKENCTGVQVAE
Briefly: Nav1.8 sodium channels assay, QPatch 48 HTX electrophysiology in HEK293-Nav1.8 cells. The note with it: at least one set of experimental runs; read-out: average pIC50 value against Nav1.8 (converted). The class given is cell-based. The method, boiled down: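 HEK293 cells co-expressing human Nav1.8, Navβ1 and TREK1 were voltage-clamped on QPatch 48 HTX. The V1/2 protocol ran at 0.07 Hz: hold −100 mV, 20 ms to 0 mV, 8 s at −46 mV, 20 ms at −100 mV, then 20 ms at 0 mV (P2). P2 current was fitted over 6-8 concentrations for IC50, with vehicle wells used to correct for run-down.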
Background: The patch-clamp technique gives a direct electrical read-out from membranes.
Regarding `Cc1cc(F)ccc1N1CN(c2ccc(=O)n(C)c2C)C(=O)c2cc(C(F)(F)F)ccc21` [Example 209, 3-(1,2-dimethyl-6-oxo-1,6-dihydropyridin-3-yl)-1-(4-fluoro-2-methylphenyl)-6-(trifluoromethyl)-2,3-dihydroquinazolin-4(1H)-one], the IC50 was 126 to 631 nM.
With `Cc1cc(F)ccc1N1CN(c2ccc(=O)[nH]c2Cl)C(=O)c2cc(C(F)(F)F)ccc21` [Example 210, 3-(2-chloro-6-oxo-1,6-dihydropyridin-3-yl)-1-(4-fluoro-2-methylphenyl)-6-(trifluoromethyl)-2,3-dihydroquinazolin-4(1H)-one] the figure was 126 to 631 nM; with `Cc1cc(F)ccc1N1CN(c2c(C)cc(=O)[nH]c2Br)C(=O)c2ccc(C(F)(F)F)cc21` [Example 211, 3-(2-bromo-4-methyl-6-oxo-1,6-dihydropyridin-3-yl)-1-(4-fluoro-2-methylphenyl)-7-(trifluoromethyl)-2,3-dihydroquinazolin-4(1H)-one], 794 to 7940 nM; with `Cc1[nH]c(=O)ccc1N1CN(c2ccc(F)cc2C(C)C)c2nc(C(F)(F)F)ccc2C1=O` [Example 212, 1-(4-fluoro-2-isopropylphenyl)-3-(2-methyl-6-oxo-1,6-dihydropyridin-3-yl)-7-(trifluoromethyl)-2,3-dihydropyrido[2,3-d]pyrimidin-4(1H)-one], ≤ 100 nM.
As for `Cc1[nH]c(=O)ccc1N1CN(c2ccc(F)cc2C(C)C)c2ncc(Cl)cc2C1=O` [Example 213, 6-chloro-1-(4-fluoro-2-isopropylphenyl)-3-(2-methyl-6-oxo-1,6-dihydropyridin-3-yl)-2,3-dihydropyrido[2,3-d]pyrimidin-4(1H)-one], the figure is 126 to 631 nM; as for `Cc1cc(F)ccc1N1CN(c2ccc(=O)[nH]c2C)C(=S)c2ccc(C(F)(F)F)cc21` [Example 214, 5-(1-(4-fluoro-2-methylphenyl)-4-thioxo-7-(trifluoromethyl)-1,4-dihydroquinazolin-3(2H)-yl)-6-methylpyridin-2(1H)-one], ≤ 100 nM.
With `Cc1cc(F)ccc1N1CN(c2ccc(=O)[nH]c2)C(=O)c2cc(C(F)(F)F)ccc21` [Example 215, 1-(4-Fluoro-2-methylphenyl)-3-(6-oxo-1,6-dihydropyridin-3-yl)-6-(trifluoromethyl)-2,3-dihydroquinazolin-4(1H)-one] the figure was 126 to 631 nM; with `COc1cc(F)ccc1N1CN(c2ccc(=O)[nH]c2)C(=O)c2ccc(C(F)(F)F)cc21` [Example 216, 1-(4-fluoro-2-methoxyphenyl)-3-(6-oxo-1,6-dihydropyridin-3-yl)-7-(trifluoromethyl)-2,3-dihydroquinazolin-4(1H)-one], 126 to 631 nM; with `Cc1cc(F)ccc1N1CN(c2ccc(=O)[nH]c2)C(=O)c2c1cccc2C(F)(F)F` [Example 217, 1-(4-fluoro-2-methylphenyl)-3-(6-oxo-1,6-dihydropyridin-3-yl)-5-(trifluoromethyl)-2,3-dihydroquinazolin-4(1H)-one], 794 to 7940 nM.
As for `Cc1cc(F)ccc1N1CN(c2c[nH]c(=O)c(C)c2)C(=O)c2ccc(C(F)(F)F)cc21` [Example 218, 1-(4-fluoro-2-methylphenyl)-3-(5-methyl-6-oxo-1,6-dihydropyridin-3-yl)-7-(trifluoromethyl)-2,3-dihydroquinazolin-4(1H)-one], the IC50 was 126 to 631 nM.
With `Cc1cc(F)ccc1N1CN(c2ccc(=O)[nH]n2)C(=O)c2ccc(C(F)(F)F)cc21` [Example 219, 1-(4-fluoro-2-methylphenyl)-3-(6-oxo-1,6-dihydropyridazin-3-yl)-7-(trifluoromethyl)-2,3-dihydroquinazolin-4(1H)-one] the figure was 794 to 7940 nM; with `O=C1c2ccc(C(F)(F)F)cc2N(Cc2ccc(F)cc2)CN1c1ccc(=O)[nH]c1` [Example 220, 1-(4-fluorobenzyl)-3-(6-oxo-1,6-dihydropyridin-3-yl)-7-(trifluoromethyl)-2,3-dihydroquinazolin-4(1H)-one], 794 to 7940 nM; with `Cc1cc(=O)[nH]cc1N1CN(c2ccc(F)cc2C)c2cc(C(F)(F)F)ccc2C1=O` [Example 221, 1-(4-fluoro-2-methylphenyl)-3-(4-methyl-6-oxo-1,6-dihydropyridin-3-yl)-7-(trifluoromethyl)-2,3-dihydroquinazolin-4(1H)-one], 126 to 631 nM.
With `Cc1cc(F)ccc1N1CN(c2ccc(=O)[nH]c2)C(=O)c2ccc(C#N)cc21` [Example 222, 1-(4-fluoro-2-methylphenyl)-4-oxo-3-(6-oxo-1,6-dihydropyridin-3-yl)-1,2,3,4-tetrahydro-quinazoline-7-carbonitrile] the figure was 794 to 7940 nM.
With `COc1cc(F)ccc1N1CN(c2ccc(=O)[nH]c2)C(=O)c2c1cccc2C(F)(F)F` [Example 223, 1-(4-fluoro-2-methoxyphenyl)-3-(6-oxo-1,6-dihydropyridin-3-yl)-5-(trifluoromethyl)-2,3-dihydroquinazolin-4(1H)-one] the figure was 794 to 7940 nM.
Consider `Cc1ncsc1N1CN(c2ccc(=O)[nH]c2C)C(=O)c2cc(C(F)(F)F)ccc21` [Example 224, 3-(2-methyl-6-oxo-1,6-dihydropyridin-3-yl)-1-(4-methylthiazol-5-yl)-6-(trifluoromethyl)-2,3-dihydroquinazolin-4(1H)-one], for which the IC50 is 794 to 7940 nM.
Take `COc1ccc(N2CN(c3ccc(=O)[nH]c3C)C(=O)c3cc(C(F)(F)F)ccc32)c(OC)c1` [Example 225, 1-(2,4-dimethoxyphenyl)-3-(2-methyl-6-oxo-1,6-dihydropyridin-3-yl)-6-(trifluoromethyl)-2,3-dihydroquinazolin-4(1H)-one]: the IC50 is ≤ 100 nM.
As for `COc1cc(F)ccc1N1CN(c2ccc(=O)[nH]c2C)C(=O)c2cc(C(F)(F)F)ccc21` [Example 226, 1-(4-fluoro-2-methoxyphenyl)-3-(2-methyl-6-oxo-1,6-dihydropyridin-3-yl)-6-(trifluoromethyl)-2,3-dihydroquinazolin-4(1H)-one], the figure is ≤ 100 nM.
With `Cc1cc(F)ccc1N1CN(c2ccc(=O)[nH]c2C)C(=O)c2cc(F)c(Cl)nc21` [Example 227, 7-chloro-6-fluoro-1-(4-fluoro-2-methylphenyl)-3-(2-methyl-6-oxo-1,6-dihydropyridin-3-yl)-2,3-dihydropyrido[2,3-d]pyrimidin-4(1H)-one] the figure was ≤ 100 nM; with `COc1cc(F)ccc1N1CN(c2ccc(=O)[nH]c2)C(=O)c2ccc(C#N)cc21` [Example 229, 1-(4-fluoro-2-methoxyphenyl)-4-oxo-3-(6-oxo-1,6-dihydropyridin-3-yl)-1,2,3,4-tetra-hydroquinazoline-7-carbonitrile], 794 to 7940 nM.
As for `Cc1cc(F)ccc1N1CN(c2ccc(=O)[nH]c2C)C(=O)c2ccc(OCC(F)(F)F)cc21` [Example 230, 1-(4-fluoro-2-methylphenyl)-3-(2-methyl-6-oxo-1,6-dihydropyridin-3-yl)-7-(2,2,2-trifluoroethoxy)-2,3-dihydroquinazolin-4(1H)-one], the figure is ≤ 100 nM; as for `Cc1cc(OC(F)(F)F)ccc1N1CN(c2ccc(=O)[nH]c2)C(=O)c2cc(C(F)(F)F)ccc21` [Example 231, 1-(2-methyl-4-(trifluoromethoxy)phenyl)-3-(6-oxo-1,6-dihydropyridin-3-yl)-6-(trifluoromethyl)-2,3-dihydroquinazolin-4(1H)-one], ≤ 100 nM.
In the case of `Cc1cc(F)ccc1N1CN(c2c(Cl)cc(=O)[nH]c2C)C(=O)c2cc(Cl)ccc21` [Example 232, 6-chloro-3-(4-chloro-2-methyl-6-oxo-1,6-dihydropyridin-3-yl)-1-(4-fluoro-2-methylphenyl)-2,3-dihydroquinazolin-4(1H)-one], the IC50 is 794 to 7940 nM.
As for `Cc1cc(F)ccc1N1CN(c2ccc(=O)[nH]c2C)C(=O)c2cc(C#N)c(Cl)cc21` [Example 233, 7-chloro-1-(4-fluoro-2-methylphenyl)-3-(2-methyl-6-oxo-1,6-dihydropyridin-3-yl)-4-oxo-1,2,3,4-tetra-hydroquinazoline-6-carbonitrile], the figure is ≤ 100 nM; as for `Cc1cc(F)ccc1N1CN(c2ccc(=O)[nH]c2C)C(=O)c2c1ccc(Cl)c2C` [Example 234, 6-chloro-1-(4-fluoro-2-methylphenyl)-5-methyl-3-(2-methyl-6-oxo-1,6-dihydropyridin-3-yl)-2,3-dihydroquinazolin-4(1H)-one], ≤ 100 nM; as for `Cc1[nH]c(=O)ccc1N1CN(c2cc(F)cc(F)c2C)c2ccc(C(F)(F)F)cc2C1=O` [Example 235, 1-(3,5-difluoro-2-methylphenyl)-3-(2-methyl-6-oxo-1,6-dihydropyridin-3-yl)-6-(trifluoromethyl)-2,3-dihydroquinazolin-4(1H)-one], 794 to 7940 nM.
With `COc1cccc2c1C(=O)N(c1ccc(=O)[nH]c1C)CN2c1ccc(F)cc1C(C)C` [Example 236, 1-(4-fluoro-2-isopropylphenyl)-5-methoxy-3-(2-methyl-6-oxo-1,6-dihydropyridin-3-yl)-2,3-dihydroquinazolin-4(1H)-one] the figure was 794 to 7940 nM.
For `Cc1[nH]c(=O)ccc1N1CN(C23CC(C2)C3)c2cc(C(F)(F)F)ccc2C1=O` [Example 237, 1-(bicyclo[1.1.1]pentan-1-yl)-3-(2-methyl-6-oxo-1,6-dihydropyridin-3-yl)-7-(trifluoromethyl)-2,3-dihydroquinazolin-4(1H)-one], the IC50 is 794 to 7940 nM.
Regarding `Cc1cc(F)ccc1N1CN(c2cc[nH]c(=O)c2C)C(=O)c2cc(C(F)(F)F)ccc21` [Example 238, 1-(4-fluoro-2-methylphenyl)-3-(3-methyl-2-oxo-1,2-dihydropyridin-4-yl)-6-(trifluoromethyl)-2,3-dihydroquinazolin-4(1H)-one], the IC50 is 794 to 7940 nM.
As for `Cc1cc(F)ccc1N1CN(c2ccc(=O)[nH]c2C)Cc2cc(C(F)(F)F)ccc21` [Example 239, 5-(1-(4-fluoro-2-methylphenyl)-6-(trifluoromethyl)-1,4-dihydroquinazolin-3(2H)-yl)-6-methylpyridin-2(1H)-one], the IC50 was 126 to 631 nM.
